Positions count from the first letter of the chain named. Read-outs that look alike come from different tables or passages of the source.
What was measured:
[1] = test system: Plasmodium falciparum 3D7 parasites; experiment: P. falciparum 3D7 culture growth assay in erythrocytes (in vitro activity); assay type: cell-based; conditions: Plasmodium falciparum, 3D7, Erythrocyte; for activity at 0.05 µM / activity at 0.1 µM / activity at 0.2 µM / EC50: 48 h; for activity at 0.05 µM: read-out: % Growth at 50 nM (in vitro, 3D7); for activity at 0.1 µM: read-out: % Growth at 100 nM (in vitro, 3D7); for activity at 0.2 µM: read-out: % Growth at 200 nM (in vitro, 3D7); for EC50: read-out: EC50 (in vitro, 3D7)
Method in brief: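 Parasitemia of P. falciparum 3D7 in erythrocyte culture was measured by flow cytometry and growth expressed as % of untreated control.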

HepG2 cells = assay type: cell-based; conditions: human
Method: (§1) HEK293T and HepG2 cells were precultured in Dulbecco’s modified Eagle medium with 10% fetal bovine serum (FBS, Gibco, #10270106) in 96-well plates (Sarstedt, TC-treated, #83.3924) at a density of 20,000 cells per well. For ATP quantification, commercial CellTiterGlo was used according to the manufacturer’s instructions. For the resazurin assay, the culture medium was removed, and the cells were incubated in 120 μL of a 66 μM resazurin solution in PBS (SigmaAldrich, #R7017) at 37 °C for 2 h, for fluorescence read-out (λex/λem = 544/590 nm) using a microplate reader (Spark, Tecan Group). Nuclei were counted by microscopy (ImageXpress MicroXL, Molecular Devices) after fixation with 4% paraformaldehyde in PBS, and 15 min incubation at room temperature with Hoechst33342. Quantification was done using the “Cell Proliferation High-Throughput” algorithm (MetaXpress Software, Molecular Devices). All values were normalized to vehicle control (DMSO).

HEK293 cells = assay type: cell-based; conditions: human
Method: as §1

PfFNT = target: T1, PfFNT (Plasmodium falciparum, UniProt O77389); experiment: Yeast-based PfFNT 14C-lactate transport assay; assay type: cell-based
T1 construct: expressed in transfected cells; membranes solubilized
T1 sequence (O77389 1-309): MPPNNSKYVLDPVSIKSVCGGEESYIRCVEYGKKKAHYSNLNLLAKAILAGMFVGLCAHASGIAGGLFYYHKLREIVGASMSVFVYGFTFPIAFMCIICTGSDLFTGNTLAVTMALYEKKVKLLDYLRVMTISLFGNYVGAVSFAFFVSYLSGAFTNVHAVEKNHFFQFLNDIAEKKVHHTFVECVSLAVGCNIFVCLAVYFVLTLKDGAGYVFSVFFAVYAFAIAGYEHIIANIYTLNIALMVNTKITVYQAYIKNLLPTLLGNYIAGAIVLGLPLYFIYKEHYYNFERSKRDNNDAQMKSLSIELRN
Method: (§2) Lactate transport functionality of PfFNT was assayed as described before.[4] Briefly, Saccharomyces cerevisiae W303-1A jen1Δady2Δcells[32] (MATa, can1-100, ade2-loc, his3-11-15, leu2-3,-112, trp1-1-1, ura3-1, jen1::kanMX4, ady2::hphMX4) kindly provided by M. Casal expressing PfFNT was grown at 29 °C to an OD600 of 1 (±0.1). Harvested cells were resuspended to an OD600 of 50 (±5) in 50 mM HEPES/Tris, pH 6.8 (±0.1). 10–15 min prior to the assay, 80 μL of yeast suspension were added to 1 μL of DMSO with or without inhibitor in a 1.5 mL reaction tube at 18 °C. Twenty μL of L-lactate solution spiked with [1-^14C]-L-lactate (Hartmann Analytic) was added yielding a 1 mM inward gradient with 0.04 μCi label. Transport was stopped after 30 s by abrupt dilution with 1 mL of ice-cold water, vacuum filtration via GF/C filter membranes (Whatman), and washing with 7 mL of ice-cold water. The radio label was analyzed by liquid scintillation counting in 3 mL of scintillation cocktail (Rotiszint eco plus, Carl Roth) using a Packard TriCarb 2900 TR (PerkinElmer Inc.).
(§3) Transport assays in yeast were done in triplicate biological replicates. At least nine technical replicates were measured around the IC50 value, concentrations with no or full inhibition were determined from at least three technical replicates. EC50-values were determined from 2 to 4 biological replicates. IC50 and EC50 curves were fitted by the Hill equation with variable slope (Graph Pad Prism 10). Error bars denote ± SEM (for n ≥ 3) or ± range (for n = 2). For the EC50-value of 7a the error of the fitting of the curve is given. Cytotoxicity was determined from biological triplicates; error is shown as SEM.

PfFNT G107S = target: T2, PfFNT G107S (Plasmodium falciparum, UniProt O77389, G107S); experiment: Yeast-based 14C-lactate transport assay, PfFNT G107S resistance mutant; assay type: cell-based
T2 construct: expressed in transfected cells; host or cells: Saccharomyces cerevisiae (yeast transport assay; strain as for wild type, inferred from the shared method)
T2 sequence (O77389 1-309 G107S): T1 sequence (O77389 1-309) with G107S
Method: as §2, §3

[2] = Lipophilicity log D7.4 by HPLC (OECD guideline); assay type: physicochemical; conditions: RP-8 HPLC column (ZORBAX Eclipse XDB-C8), pH 7.4
Method: Lipophilicity was determined according to the OECD Guidelines for the Testing of Chemicals no. […]. Briefly, the test compounds plus 9 standards (4-acetylpyridine, acetanilide, acetophenone, methyl benzoate, ethyl benzoate, benzophenone, phenyl benzoate, diphenyl ether, triphenylamine) were separated by HPLC with UV detection at 220 nm (Waters HPLC 1525 with tunable absorbance detector 486) using an RP-8 column (Agilent Technologies ZORBAX Eclipse XDB-C8 4.6 × 150 mm, 5 μm) at 20 °C. Eluents A (20 mM ammonium formate, pH 7.4) and B (methanol) were used to generate a gradient profile of 80% A–100% B (0–35 min), 100% B (35–37 min), 100% B–80% A (37–42 min), and 80% A (42–55 min) at a flow rate of 0.8 mL min^–1. The dead time was determined via the injection peak caused by the solvent. The log D7.4 values were calculated by correlating the capacity factors with the known values of the standards via polynomial fitting.

SMILES | activity at 0.05 µM ([1]; 50 nM compound, % of untreated control) [%] | activity at 0.1 µM ([1]; 100 nM compound, % of untreated control) [%] | activity at 0.2 µM ([1]; 200 nM compound, % of untreated control) [%] | inhibition at 0.05 µM ([1]; 50 nM compound, 100 minus % growth, read-out: inhibitory activity at 50 nM (in vitro, 3D7)) [%] | EC50 ([1]; cultures in erythrocytes) [µM] | concentration above which nuclei count (proliferation) starts to decline slightly (HepG2 cells) | concentration above which nuclei count (proliferation) starts to decline slightly (HEK293 cells) | IC50 (PfFNT; 14C-lactate transport, PfFNT wild type, read-out: IC50 (transport, yeast)) [µM] | IC50 (PfFNT G107S) [µM] | chromatographic logD [2] | activity at 0.05 µM [1] [%] | activity at 0.1 µM [1] [%] | activity at 0.2 µM [1] [%] | EC50 [1] [µM] | IC50 (PfFNT) [µM]
CCCNc1ccc(C(=O)/C=C(\O)C(F)(F)C(F)(F)F)cn1 [7e, 4,4,5,5,5-Pentafluoro-3-hydroxy-1-(6-(propylamino)pyridin-3-yl)pent-2-en-1-one] | 7 | 4 | 2 | 93 | 0.0148 | above 10 μM | above 10 μM | 0.2 ± 0.02 | 0.63 | 3.18 | – | – | – | – | –
CC(=O)Nc1ccc(C(=O)/C=C(\O)C(F)(F)C(F)(F)F)cn1 [8a, N-[5-(4,4,5,5,5-Pentafluoro-3-hydroxypent-2-enoyl)pyridin-2-yl]acetamide] | – | – | – | – | – | above 10 μM | above 10 μM | – | 12 | 1.7 | 50 | 23 | 8 | 0.0498 | 0.21 ± 0.01

Reference: article PMC11513924, “Addressing the Intracellular Vestibule of the Plasmodial Lactate Transporter PfFNT by p-Substituted Inhibitors Amplifies In Vitro Activity” (Journal of Medicinal Chemistry, 2024)
